Experimental data published in patent US9169252B2 (BRISTOL-MYERS SQUIBB COMPANY, priority 2014, dated 2015).
Where two headings read alike, the source gives them in different places.

Legend:
IRAK4 = IRAK4 (Homo sapiens (Human), UniProt Q9NWZ3); test: IRAK4 Inhibition Assay; type: biochemical; settings: ATP 500 μM; IRAK4 0.6 nM; read-out: IRAK4 IC50
How it was run: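 Mobility-shift readout: fluorescent substrate and phosphoproduct resolved electrophoretically on Caliper LabChip 3000 after EDTA quench (35 mM). Enzyme reaction of IRAK4, substrates and test compound ran 60 min at room temperature.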

[1] = test system: TLR2 induced IL-6 in peripheral blood mononuclear cells (PBMCs); test: PBMC TLR2 Induced IL-6 Assay; type: cell-based, human; settings: human PBMCs, lipoteichoic acid stimulated, IL-6 by ELISA; for EC50: read-out: Cell EC50; for IC50: read-out: Cell IC50
How it was run: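 Lipoteichoic acid at 10 µg/ml served as TLR2 stimulus for 5 hours, following a 30-minute compound pretreatment at 37° C. Cells were Ficoll-isolated human PBMCs, 250000 cells/well, cultured in RPMI plus 10% heat-inactivated FCS.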

Sequence of IRAK4 (Q9NWZ3 whole entry, species assumed): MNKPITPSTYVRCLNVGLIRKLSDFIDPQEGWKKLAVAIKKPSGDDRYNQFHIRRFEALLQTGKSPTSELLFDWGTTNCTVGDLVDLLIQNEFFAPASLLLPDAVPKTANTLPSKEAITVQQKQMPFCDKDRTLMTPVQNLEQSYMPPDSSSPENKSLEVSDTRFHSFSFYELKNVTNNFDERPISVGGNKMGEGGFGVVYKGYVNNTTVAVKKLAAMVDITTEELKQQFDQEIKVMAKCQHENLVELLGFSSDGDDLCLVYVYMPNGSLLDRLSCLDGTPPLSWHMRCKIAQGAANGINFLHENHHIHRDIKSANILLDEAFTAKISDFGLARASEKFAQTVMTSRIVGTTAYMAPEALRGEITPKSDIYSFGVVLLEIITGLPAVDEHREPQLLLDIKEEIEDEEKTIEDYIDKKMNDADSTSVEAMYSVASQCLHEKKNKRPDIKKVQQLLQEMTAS

| SMILES | IC50 (IRAK4) [nM] | EC50 ([1]; Homo sapiens, PBMC) [nM] | IC50 ([1]; Homo sapiens, PBMC) [nM] | IC50 [1] [nM] | EC50 [1] [nM] |
| --- | --- | --- | --- | --- | --- |
| CC(C)(C)OC(=O)N1CC(Nc2cc(-n3ccc4cc(C#N)cnc43)ncc2C(=O)NC[C@@H](F)C(C)(C)O)C1 [Example 457] | 10.3 | 458 | 1240 | – | – |
| CC(C)(O)[C@H](F)CNC(=O)c1cnc(-n2ccc3cc(C#N)cnc32)cc1NC1CCN(S(C)(=O)=O)CC1 [Example 463] | 1.7 | 23 | – | – | – |
| CC(C)(O)[C@H](F)CNC(=O)c1cnc(-n2ccc3cc(C#N)cnc32)cc1NC1CCN(c2ccccc2)CC1 [Example 464] | 3.1 | 257 | – | – | – |
| CC(C)(O)[C@H](F)CNC(=O)c1cnc(-n2ccc3cc(C#N)cnc32)cc1N[C@@H]1CCN(S(C)(=O)=O)C1 [Example 465] | 1.3 | 7 | 23 | – | – |
| CC(C)(O)[C@H](F)CNC(=O)c1cnc(-n2ccc3cc(C#N)cnc32)cc1N[C@@H]1CCNC1 [Example 466] | 13.9 | 792 | 130 | – | – |
| CC(C)Nc1cc(-n2ccc3cc(C#N)cnc32)ncc1C(=O)NCC(=O)N1CCN(C)CC1 [Example 467] | 2.3 | 26 | 100 | – | – |
| CC(=O)N1CC(Nc2cc(-n3ccc4cc(C#N)cnc43)ncc2C(=O)NC[C@@H](F)C(C)(C)O)C1 [Example 468] | 5.8 | 128 | 1010 | – | – |
| CC(=O)N1CC[C@@H](Nc2cc(-n3ccc4cc(C#N)cnc43)ncc2C(=O)NC[C@@H](F)C(C)(C)O)C1 [Example 469] | 2.9 | 84 | 207 | – | – |
| CC(=O)N1CCC(Nc2cc(-n3ccc4cc(C#N)cnc43)ncc2C(=O)NC[C@@H](F)C(C)(C)O)CC1 [Example 470] | 8 | 240 | – | – | – |
| CC(C)(O)[C@H](F)CNC(=O)c1cnc(-n2ccc3cc(C#N)cnc32)cc1Nc1ccc(-n2ccnc2)cc1 [Example 471] | 10.1 | 194 | – | – | – |
| CC(C)(O)[C@H](F)CNC(=O)c1cnc(-n2ccc3cc(C#N)cnc32)cc1NC1CN(c2ncc(F)cn2)C1 [Example 472] | 2 | 70 | 123 | – | – |
| CC(C)(O)[C@H](F)CNC(=O)c1cnc(-n2ccc3cc(C#N)cnc32)cc1N[C@@H]1CCN(C(=O)CC(F)(F)F)C1 [Example 473] | 4.1 | 238 | 483 | – | – |
| COC(=O)N1CC[C@@H](Nc2cc(-n3ccc4cc(C#N)cnc43)ncc2C(=O)NC[C@@H](F)C(C)(C)O)C1 [Example 474] | 1.2 | 77 | 315 | – | – |
| CC(C)(O)[C@H](F)CNC(=O)c1cnc(-n2ccc3cc(C#N)cnc32)cc1NC1CN(S(C)(=O)=O)C1 [Example 476] | 3 | 198 | – | – | – |
| CC(C)(O)[C@H](F)CNC(=O)c1cnc(-n2ccc3cc(C#N)cnc32)cc1N[C@@H]1CCN(C(=O)CC#N)C1 [Example 477] | 2.9 | 301 | 1300 | – | – |
| C[C@@H](CO)Nc1cc(-n2ccc3cc(C#N)cnc32)ncc1C(=O)NCCNS(C)(=O)=O [Example 478] | 4.7 | 462 | 805 | – | – |
| CS(=O)(=O)NCCNC(=O)c1cnc(-n2ccc3cc(C#N)cnc32)cc1NC1CCOCC1 [Example 479] | 5.7 | 144 | 835 | – | – |
| CC(C)(O)[C@H](F)CNC(=O)c1cnc(-n2ccc3cc(C#N)cnc32)cc1NCCN1CCOCC1 [Example 480] | 4 | 170 | 270 | – | – |
| COC(=O)N1CC(Nc2cc(-n3ccc4cc(C#N)cnc43)ncc2C(=O)NC[C@@H](F)C(C)(C)O)C1 [Example 481] | 1.9 | 53 | 595 | – | – |
| CC(C)(O)[C@H](F)CNC(=O)c1cnc(-n2ccc3cc(C#N)cnc32)cc1NCC1CCOCC1 [Example 482] | 17.4 | 433 | – | – | – |
| CC(C)(O)[C@H](F)CNC(=O)c1cnc(-n2ccc3cc(C#N)cnc32)cc1N[C@H]1CC[C@H](C(N)=O)CC1 [Example 486] | 1.2 | – | 177 | – | – |
| CC(C)Nc1cc(-n2ccc3cc(C#N)cnc32)ncc1C(=O)NCCC1(O)CCCC1 [Example 487] | 2 | 34 | 111 | – | – |

| SMILES | IC50 (IRAK4) [nM] | EC50 ([1]; Homo sapiens, PBMC) [nM] | IC50 ([1]; Homo sapiens, PBMC) [nM] | IC50 [1] [nM] | EC50 [1] [nM] |
| --- | --- | --- | --- | --- | --- |
| CC(C)(O)[C@H](F)CNC(=O)c1cnc(-n2ccc3cc(C#N)cnc32)cc1NC1CCC(NCC(F)(F)F)C1 (stereo partly drawn) [Example 488] | 6.8 | 208 | – | 379 | – |
| CC(C)(O)[C@H](F)CNC(=O)c1cnc(-n2ccc3cc(C#N)cnc32)cc1NC1CCC(NCC(F)(F)F)C1 (stereo partly drawn) [Example 489] | 4.3 | – | – | 1700 | 318 |
| CC(C)Nc1cc(-n2ccc3cc(C#N)cnc32)ncc1C(=O)NCC(F)C1(O)COC1 (stereo not drawn) [Example 494] | 3 | – | 289 | – | – |
| CC(C)Nc1cc(-n2ccc3cc(C#N)cnc32)ncc1C(=O)NCC(F)C1(O)COC1 (stereo not drawn) [Example 495] | 1.8 | – | – | 215 | – |
| CC(C)Nc1cc(-n2ccc3cc(C#N)cnc32)ncc1C(=O)N[C@H]1CC[C@H](C(C)(C)O)C1 [Example 497] | 3.7 | – | 98 | – | – |
| CC(C)COC(=O)NCc1cnc2c(ccn2-c2cc(NC(C)C)c(C(=O)NC[C@@H](F)C(C)(C)O)cn2)c1 [Example 498] | 5.7 | – | 248 | – | – |
| CCN(CC)C(=O)NCc1cnc2c(ccn2-c2cc(NC(C)C)c(C(=O)NC[C@@H](F)C(C)(C)O)cn2)c1 [Example 500] | 13.2 | – | 546 | – | – |
| CCOC(=O)NCc1cnc2c(ccn2-c2cc(NC(C)C)c(C(=O)NC[C@@H](F)C(C)(C)O)cn2)c1 [Example 501] | 5.4 | – | 332 | – | – |
| CC(C)Nc1cc(-n2ccc3cc(CNC(=O)OC(C)C)cnc32)ncc1C(=O)NC[C@@H](F)C(C)(C)O [Example 502] | 4.8 | – | 366 | – | – |
| CC(C)CC(=O)NCc1cnc2c(ccn2-c2cc(NC(C)C)c(C(=O)NC[C@@H](F)C(C)(C)O)cn2)c1 [Example 503] | 2.3 | – | 99 | – | – |
| CC(C)Nc1cc(-n2ccc3cc(CNC(=O)CC4CCCC4)cnc32)ncc1C(=O)NC[C@@H](F)C(C)(C)O [Example 504] | 4.3 | – | 262 | – | – |
| CC(C)Nc1cc(-n2ccc3cc(CNC(=O)C4CC4)cnc32)ncc1C(=O)NC[C@@H](F)C(C)(C)O [Example 505] | 13.5 | – | 559 | – | – |
| C[C@@H](F)CNc1cc(-n2ccc3cc(C#N)cnc32)ncc1C(=O)NC[C@@H](F)C(C)(C)O [Example 506] | 1.5 | – | 65 | – | – |
| C[C@H](F)CNc1cc(-n2ccc3cc(C#N)cnc32)ncc1C(=O)NC[C@@H](F)C(C)(C)O [Example 507] | 1.4 | – | 374 | – | – |
| CCCOC(=O)NCc1cnc2c(ccn2-c2cc(NC(C)C)c(C(=O)NC[C@@H](F)C(C)(C)O)cn2)c1 [Example 508] | 2.8 | – | 224 | – | – |
| CC(C)(O)[C@H](F)CNC(=O)c1cnc(-n2ccc3cc(C#N)cnc32)cc1N[C@H]1C[C@H](C(C)(C)O)C1 [Example 509] | 1.6 | – | 128 | – | – |
| CCCC(=O)NCc1cnc2c(ccn2-c2cc(NC(C)C)c(C(=O)NC[C@@H](F)C(C)(C)O)cn2)c1 [Example 510] | 3.2 | – | 250 | – | – |
| CC(C)Nc1cc(-n2ccc3cc(CNC(=O)CC4CCCCC4)cnc32)ncc1C(=O)NC[C@@H](F)C(C)(C)O [Example 511] | 5.4 | – | 47 | – | – |
| CC(C)CCC(=O)NCc1cnc2c(ccn2-c2cc(NC(C)C)c(C(=O)NC[C@@H](F)C(C)(C)O)cn2)c1 [Example 512] | 3.5 | – | 541 | – | – |
| CCCNC(=O)NCc1cnc2c(ccn2-c2cc(NC(C)C)c(C(=O)NC[C@@H](F)C(C)(C)O)cn2)c1 [Example 513] | 5.9 | – | 389 | – | – |
| CC(C)Nc1cc(-n2ccc3cc(CNC(=O)NCc4ccccc4)cnc32)ncc1C(=O)NC[C@@H](F)C(C)(C)O [Example 514] | 8.2 | – | 47 | – | – |
| CC(C)Nc1cc(-n2ccc3cc(CNC(=O)Cc4ccccc4)cnc32)ncc1C(=O)NC[C@@H](F)C(C)(C)O [Example 515] | 2.2 | – | 542 | – | – |
